This assay deals with PDGF receptor on human foreskin fibroblasts / NIH/3T3 cells. Briefly: Inhibition assay: 3H-thymidine incorporation in cells stimulated with PDGF dimer. The format is cell-based. In general terms: Incorporation of labelled thymidine or its analogues reports DNA synthesis.

Procedure: One method includes the determination of ^3 H-thymidine incorporation in a cell which normally is induced to proliferate in the presence of PDGF, but which simultaneously is exposed to the prospective antagonist and to biologically active PDGF.
Human foreskin fibroblasts are grown from explants of newborn foreskin. NIH/3T3 cells were obtained from S. Aaronson (NCI). Cells are cultured in Dulbecco's modified Eagle's medium (DMEM) supplemented with 10% fetal bovine serum at 37° C. in an atmosphere of 10% CO2 and 90% air.
Cells are grown in 48-well plates to confluence and used for assay 3-4 days later. Different monomeric forms or fragments of PDGF monomers are added to the media, and after 18 hours 10 .xi.g PDGF AA dimer, AB dimer, or BB dimer and 2 .xi.Ci/ml ^3 H-thymidine are added. The cells are incubated an additional 2 hours and washed at 4° C. three times with phosphate-buffered saline (PBS) and five times with 5% trichloroacetic acid (TCA). TCA-insoluble materials are solubilized in 0.1N NaOH/0.1% SDS. The amount of incorporated ^3 H-thymidine is determined with a Beckman liquid scintillation counter.

On to “A: Intact recombinant PDGF A chain monomer from E. coli, Cys residues pyridylethylated to prevent dimerization”, for which the “inhibition of the proliferative effect of BB dimer (in words)” value (PDGF BB dimer as stimulus) is reported as “inhibit the proliferative effect of BB dimer”. Moreover, the IC50 (inhibition of PDGF dimer-induced 3H-thymidine incorporation, antagonist added 18 hours before PDGF dimer and 3H-thymidine, read-out: HALF-MAX INHIBITION) came out at 100 nM.

For the origin of these results see patent US5418135A, “Method of inhibiting binding of PDGF to a PDGF receptor by biosynthetic PDGF antagonists” (Creative BioMolecules, Inc., priority 1993, dated 1995).
